Experimental data from patent US20140094402A1, “Lantibiotic NAI-802, Pharmaceutically Acceptable Salts, Compositions and Uses Thereof” ([…] PHARMACEUTICALS, INC., priority 2011, published 2014).
In brackets after ≈: the same amount, converted by molar mass. Like-named read-outs stand apart in the source and are kept apart here.

Legend:
Moraxella catharralis [1] = system: Moraxella catharralis
[2] = system: Enterococcus faecalis VanS
[3] = system: Staphylococcus aureus Met-R
Streptococcus pneumoniae [4] = system: Streptococcus pneumoniae
[5] = system: Candida albicans ATCC 90028; conditions: ATCC 90028, 48 h
Clostridium butyricum [6] = conditions: 48 h
[7] = system: Bacteroides fragilis ATCC 25285; conditions: ATCC 25285, 48 h
[8] = system: Enterococcus faecium VanA
[9] = system: Enterococcus faecium VanS
Streptococcus pyogenes [10] = system: Streptococcus pyogenes
[11] = system: Gram positive bacteria, including staphylococci and streptococci; experiment: In vitro antibacterial activity, summary statement; format: cell-based
Escherichia coli [12] = system: Escherichia coli
[13] = system: Peptstreptococcus asaccharolyticus; conditions: 48 h
[14] = system: Staphylococcus aureus Met-S ATCC6538P; conditions: ATCC6538
Clostridium difficile [15] = system: Clostridium difficile
[16] = system: Clostridium butyricum and Clostridium perfrigens
[17] = system: Enterococcus faecalis VanA
Clostridium perfrigens [18] = system: Clostridium perfrigens
Escherichia coli [19] = experiment: microbe, parasite or virus in culture; conditions: read-out: Minimal Inhibitory Concentration
Streptococcus pneumoniae [20] = experiment: microbe, parasite or virus in culture; conditions: read-out: Minimal Inhibitory Concentration
[21] = system: Bacteroides fragilis ATCC 25285; experiment: microbe, parasite or virus in culture; conditions: ATCC25285, 48 h, read-out: Minimal Inhibitory Concentration
[22] = system: Enterococcus faecium VanS; experiment: microbe, parasite or virus in culture
Streptococcus pyogenes [23] = experiment: microbe, parasite or virus in culture; conditions: read-out: Minimal Inhibitory Concentration
[24] = system: Enterococcus faecalis VanS; experiment: microbe, parasite or virus in culture
Moraxella catharralis [25] = experiment: microbe, parasite or virus in culture; conditions: read-out: Minimal Inhibitory Concentration
Clostridium difficile [26] = experiment: microbe, parasite or virus in culture; conditions: Clostridioides difficile, 48 h
[27] = system: Enterococcus faecalis VanA; experiment: microbe, parasite or virus in culture; conditions: read-out: Minimal Inhibitory Concentration
Clostridium perfrigens [28] = experiment: microbe, parasite or virus in culture; conditions: 48 h, read-out: Minimal Inhibitory Concentration
[29] = system: Staphylococcus aureus Met-R; experiment: microbe, parasite or virus in culture; conditions: read-out: Minimal Inhibitory Concentration
[30] = system: Staphylococcus aureus Met-S ATCC6538P; experiment: microbe, parasite or virus in culture
[31] = system: Enterococcus faecium VanA; experiment: microbe, parasite or virus in culture; conditions: read-out: Minimal Inhibitory Concentration
Clostridium butyricum [32] = experiment: microbe, parasite or virus in culture; conditions: 48 h, read-out: Minimal Inhibitory Concentration
[33] = system: Candida albicans ATCC 90028; experiment: microbe, parasite or virus in culture; conditions: ATCC90028, 48 h, read-out: Minimal Inhibitory Concentration
[34] = system: Staphylococcus aureus Met-S ATCC19636; experiment: microbe, parasite or virus in culture
[35] = system: Peptstreptococcus asaccharolyticus; experiment: organism not typed; conditions: 48 h, read-out: Minimal Inhibitory Concentration
[36] = range over codes 4013, 1365, 4015

Compound: CC[C@H](C)[C@@H]1NC(=O)C2NC(=O)[C@H](CC(C)C)NC(=O)C(NC(=O)C3CSCC(NC(=O)[C@H](C)N)C(=O)N[C@@H](CO)C(=O)NCC(=O)N[C@@H](Cc4c[nH]c5ccccc45)C(=O)N[C@@H](C(C)C)C(=O)N3)C(C)SCC(NC(=O)[C@H](CCC(=O)O)NC1=O)C(=O)NCC(=O)NC1C(=O)N[C@@H](C(C)C)C(=O)N[C@@H]([C@@H](C)CC)C(=O)NC(CSC2C)C(=O)N[C@@H](C)C(=O)NC(C(=O)N[C@@H](CCCNC(=N)N)C(=O)NCCN)C[S+]([O-])C1C (some centres unmarked) [NAI-802 monoamide with ethylendiamine]
- Minimal Inhibitory Concentration (Moraxella catharralis [1]): 32 mg/L
- Minimal Inhibitory Concentration [2]: 32 mg/L
- Minimal Inhibitory Concentration [3]: 8 mg/L
- Minimal Inhibitory Concentration (Streptococcus pneumoniae [4]): 2 mg/L
- Minimal Inhibitory Concentration [5]: >128 mg/L
- Minimal Inhibitory Concentration (Clostridium butyricum [6]): 1 mg/L
- Minimal Inhibitory Concentration [7]: >128 mg/L
- Minimal Inhibitory Concentration [8]: 16 mg/L
- Minimal Inhibitory Concentration [9]: 32 mg/L
- Minimal Inhibitory Concentration (Streptococcus pyogenes [10]; code 49, Todd Hewitt broth): ≦0.125 mg/L
- antibacterial activity compared to native NAI-802 ([11]; against certain organisms): more antibacterial active
- Minimal Inhibitory Concentration (Escherichia coli [12]): >128 mg/L
- Minimal Inhibitory Concentration [13]: 0.5 mg/L
- Minimal Inhibitory Concentration [14]: 4 mg/L
- Minimal Inhibitory Concentration (Clostridium difficile [15]; code 4013, anaerobic, 48 hours): ≦0.125 mg/L
- Minimal Inhibitory Concentration, range (Clostridium difficile [15]; [36]): ≦0.125-1 mg/L
- Minimal Inhibitory Concentration, range [16]: 1 to 8 mg/L
- Minimal Inhibitory Concentration [17]: 32 mg/L

Compound: CC[C@H](C)[C@@H]1NC(=O)C2NC(=O)[C@H](CC(C)C)NC(=O)C(NC(=O)C3CSCC(NC(=O)[C@H](C)N)C(=O)N[C@@H](CO)C(=O)NCC(=O)N[C@@H](Cc4c[nH]c5ccccc45)C(=O)N[C@@H](C(C)C)C(=O)N3)C(C)SCC(NC(=O)[C@H](CCC(=O)O)NC1=O)C(=O)NCC(=O)NC1C(=O)N[C@@H](C(C)C)C(=O)N[C@@H]([C@@H](C)CC)C(=O)NC(CSC2C)C(=O)N[C@@H](C)C(=O)NC(C(=O)N[C@@H](CCCNC(=N)N)C(=O)O)C[S+]([O-])C1C (some centres unmarked) [NAI-802]
- Minimal Inhibitory Concentration (Moraxella catharralis [1]): 64 mg/L
- Minimal Inhibitory Concentration [2]: 128 mg/L
- Minimal Inhibitory Concentration [3]: 32 mg/L
- Minimal Inhibitory Concentration (Streptococcus pneumoniae [4]): 8 mg/L
- Minimal Inhibitory Concentration [5]: >128 mg/L
- Minimal Inhibitory Concentration (Clostridium butyricum [6]): 0.25 mg/L
- Minimal Inhibitory Concentration [7]: >128 mg/L
- Minimal Inhibitory Concentration [8]: 128 mg/L
- Minimal Inhibitory Concentration [9]: >128 mg/L
- Minimal Inhibitory Concentration (Streptococcus pyogenes [10]): 0.5 mg/L
- antibacterial activity against Gram positive bacteria ([11]; including staphylococci and streptococci): antibacterial activity against Gram positive bacteria
- Minimal Inhibitory Concentration (Clostridium perfrigens [18]; 48 h): 2 mg/L
- Minimal Inhibitory Concentration (Escherichia coli [12]): >128 mg/L
- Minimal Inhibitory Concentration [13]: 1 mg/L
- Minimal Inhibitory Concentration, range (Clostridium difficile [15]): 0.25 to 2 mg/L
- Minimal Inhibitory Concentration, range [16]: 0.25 to 2 mg/L
- Minimal Inhibitory Concentration [17]: 128 mg/L

Compound: CN[C@H](CC(C)C)C(=O)N[C@H]1C(=O)N[C@@H](CC(N)=O)C(=O)N[C@H]2C(=O)N[C@H]3C(=O)N[C@H](C(=O)N[C@H](C(=O)O)c4cc(O)cc(O)c4-c4cc3ccc4O)[C@H](O)c3ccc(c(Cl)c3)Oc3cc2cc(c3O[C@@H]2O[C@H](CO)[C@@H](O)[C@H](O)[C@H]2O[C@H]2C[C@](C)(N)[C@H](O)[C@H](C)O2)Oc2ccc(cc2Cl)[C@H]1O [VA, vancomycin]
- Minimal Inhibitory Concentration (Moraxella catharralis [1]; code 3294): >128 mg/L
- MIC (Escherichia coli [19]): > 128 µg/mL
- MIC (Streptococcus pneumoniae [20]): 0.5 µg/mL (≈ 0.345 µM)
- MIC [21]: 32 µg/mL (≈ 22.1 µM)
- MIC ([22]; read-out: Minimal Inhibitory Concentration, code 568): 2 µg/mL (≈ 1.38 µM)
- MIC ([22]; read-out: Minimal Inhibitory Concentration, code 568, +30% bovine serum): 4 µg/mL (≈ 2.76 µM)
- MIC (Streptococcus pyogenes [23]): 0.25 µg/mL (≈ 0.173 µM)
- MIC ([24]; read-out: Minimal Inhibitory Concentration, code 559): 1 µg/mL (≈ 0.69 µM)
- MIC ([24]; read-out: Minimal Inhibitory Concentration, code 559, +30% bovine serum): 2 µg/mL (≈ 1.38 µM)
- MIC (Moraxella catharralis [25]): > 128 µg/mL
- MIC (Clostridium difficile [26]; read-out: Minimal Inhibitory Concentration, code 1365, anaerobic): 0.5 µg/mL (≈ 0.345 µM)
- MIC (Clostridium difficile [26]; read-out: Minimal Inhibitory Concentration, code 4013, anaerobic): 0.25 µg/mL (≈ 0.173 µM)
- MIC (Clostridium difficile [26]; read-out: Minimal Inhibitory Concentration, code 4015, anaerobic): 0.25 µg/mL (≈ 0.173 µM)
- MIC [27]: > 128 µg/mL
- MIC (Clostridium perfrigens [28]): 1 µg/mL (≈ 0.69 µM)
- MIC [29]: 0.5 µg/mL (≈ 0.345 µM)
- Minimal Inhibitory Concentration (Clostridium perfrigens [18]; code 3607, anaerobic, 48 hours): 1 mg/L
- MIC ([30]; read-out: Minimal Inhibitory Concentration, code 100, +30% bovine serum): 1 µg/mL (≈ 0.69 µM)
- MIC ([30]; read-out: Minimal Inhibitory Concentration, code 100, CAMHB): 0.25 µg/mL (≈ 0.173 µM)
- MIC [31]: > 128 µg/mL
- MIC (Clostridium butyricum [32]): 1 µg/mL (≈ 0.69 µM)
- MIC [33]: > 128 µg/mL
- Minimal Inhibitory Concentration, range (Clostridium difficile [15]; [36]): 0.25 to 0.5 mg/L
- Minimal Inhibitory Concentration, range [16]: 1 mg/L
- MIC ([34]; ATCC19636, read-out: Minimal Inhibitory Concentration, code 819, +30% bovine serum): 1 µg/mL (≈ 0.69 µM)
- MIC ([34]; ATCC19636, read-out: Minimal Inhibitory Concentration, code 819, CAMHB): 0.5 µg/mL (≈ 0.345 µM)
- MIC [35]: 0.5 µg/mL (≈ 0.345 µM)
